Assay results published in US20230125075A1, “Composition Containing Paper Mulberry Extracts” (LG Household & Health Care Ltd., priority 2020, published 2023).
Values joined by “and” are separate entries in the source; they are usually repeats but may differ in a detail not shown here. Equal entries are not always repeated.

Legend:
in vitro = conditions: human
Procedure: (§1) First, HepG2 cells were cultured at 37° C. under 5% CO2 atmosphere in a DMEM culture medium containing 10% FBS. Then, the cultured HepG2 cells were seeded on a 24-well plate at a cell density of 3×10^5 cells/well, followed by incubation for 1 day. Then, various concentrations of test substances were added to HepG2 cells, followed by incubation for 24 hours.
(§2) An MTT solution dissolved in PBS at a concentration of 5 mg/mL was diluted to 10% with the culture medium. The solution was dispensed in a volume of 0.5 to 1.0 mL in a 24-well plate and incubated for 4 hours in an incubator.
(§3) After 4 hours of incubation, the culture medium containing the MTT solution was removed, and 1 mL of DMSO was added and was shaken for 10 minutes. Then, absorbance was measured at 540 nm. At this time, as positive controls, the cells were treated with (1) 100 mM ethanol and (2) 100 mM ethanol+100 ppm Silymarin, respectively.
(§4) As a result of the experiment, liver cell viability was quantified. That is, as liver cell viability increases, the liver health improvement effect increases.
(§5) As the absorbance value increases, liver cell viability increases.

HepG2 cells = assay: in vitro; conditions: human, 24 h, 100 mM
Procedure: as §1, §2, §3, §4, §5

[1] = system: THP-1 cells and NK-92 cells; assay: Interferon gamma (IFN-γ) production, ELISA; type: cell-based; conditions: positive control
Procedure: To confirm the immune function improvement effect of the plant extracts, the amount of interferon gamma produced in […] and macrophages was measured. First, THP-1 cells, which are macrophages, and NK-92 cells, which are natural killer cells, were suspended in an RPMI (Roswell Park Memorial Institute)-1640 culture medium (for THP-1 cells) and a MEMA (Minimum Essential Media Alpha) culture medium (for NK-92 cells), respectively. The suspended cells were seeded on culture plates (24 wells/96 wells). The plant extracts (sample) diluted to various concentrations were added to the cells. At this time, lipopolysaccharide (LPS) (0.1 to 1 μg/mL) was used as a positive control. The sample-treated cells were placed in a 5% CO2 incubator set to 37° C. and incubated for 24 to 48 hours. Then, the supernatant was taken and used as an analysis sample.
The experiment was performed using an enzyme-linked immunosorbent assay (ELISA) method. After coating a 96-well plate with an IFN-γ primary antibody, 1% bovine serum albumin (BSA) was added to block the remaining space. Then, distilled water (blank), an IFN-γ standard solution, and each sample were added to the wells in an amount of 100 μl and incubated at room temperature for 2 hours. 100 μl of a biotin-bound IFN-γ secondary antibody was added to the wells and incubated at room temperature for 2 hours. 100 μl of avidin-bound horseradish peroxidase (HRP) was added and incubated at room temperature or 37° C. for 30 minutes. 100 μl of a TMB substrate solution was added and incubated at room temperature for 4 to 14 minutes. 50 μl of a stop solution (sulfuric acid) was added to stop the reaction. Absorbance at 450 nm wavelength was measured using an ELISA reader. The IFN-γ content of each sample was calculated based on the absorbance of the standard solution.
In this experiment, the effect of the plant extracts on production of interferon gamma was confirmed. As a result of the experiment, the amount of interferon gamma was quantified. As the level of interferon gamma increases, the degree of improvement in immune function increases.
The absorbance is proportional to the IFN-γ content. In addition, increase in IFN-γ production means that immunity is enhanced, such as promotion of differentiation of T lymphocytes, activation of macrophages, and promotion of production of IgG antibodies in B cells.

Compound	viability at 24 h, 100 mM (in vitro) [%]	Liver health-Cell viability (% of control) (HepG2 cells)	Immunity-IFNg secretion ([1]; 1 ppm)	Immunity-IFNg secretion (% of control) ([1]; 1 ppm)	Immunity-IFNg secretion ([1]; LPS 1 ppm)	Immunity-IFNg secretion (% of control) ([1]; LPS 1 ppm)
CCO [Ethanol]	68.2	68.25 (Ethanol % of control	–	–	–	–
lipopolysaccharide [LPS]	–	–	964.24 % of control	964.24 % of control and 964.24 (LPS % of control	964.24 % of control	964.24 % of control
